Assay results from PubChem BioAssay (NCI).
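Briefly, cells in 96-well plates were exposed to five compound concentrations for 48 h, and endpoints were estimated by linear interpolation. At the TGI there is no net growth.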

How the values were obtained:
Assay in all cases: NCI anticancer screen, dose series, 48 h
[1] = tested on: ACHN renal
[2] = tested on: CCRF-CEM leukemia
[3] = tested on: DU-145 prostate
[4] = tested on: HCT-15 colon
[5] = tested on: HOP-62 NSCLC
[6] = tested on: HS 578T breast
[7] = tested on: MDA-N
[8] = tested on: MOLT-4 leukemia
[9] = tested on: NCI-H522 lung
[10] = tested on: NCI/ADR-RES ovarian
[11] = tested on: OVCAR-3 ovarian
[12] = tested on: OVCAR-4 ovarian
[13] = tested on: SF-268 CNS
[14] = tested on: SF-295 CNS
[15] = tested on: SK-MEL-28 melanoma
[16] = tested on: SK-OV-3 ovarian
[17] = tested on: SW-620 colon
[18] = tested on: T-47D breast
[19] = tested on: U251 CNS
[20] = tested on: UO-31 renal

| Compound | TGI [1] | TGI [2] | TGI [3] | TGI [4] | TGI [5] | TGI [6] | TGI [7] | TGI [8] | TGI [9] | TGI [10] | TGI [11] | TGI [12] | TGI [13] | TGI [14] | TGI [15] | TGI [16] | TGI [17] | TGI [18] | TGI [19] | TGI [20] |
| --- | --- | --- | --- | --- | --- | --- | --- | --- | --- | --- | --- | --- | --- | --- | --- | --- | --- | --- | --- | --- |
| COC(=O)C1CC2CCC1(O[Si](C(C)C)(C(C)C)C(C)C)C(O)C2 (stereo not given) | 80.4 µM | > 100 µM | 34.9 µM | 30.6 µM | 44.1 µM | 99.6 µM | 57.4 µM | 30.1 µM | 44.7 µM | > 100 µM | 39.3 µM | > 100 µM | 79.2 µM | 47.2 µM | 44.9 µM | > 100 µM | 60.8 µM | 76.7 µM | 31.9 µM | 30.2 µM |
| O=[N+]([O-])c1c(F)c(F)c2c(c1F)Nc1ccccc1S2 | 29.1 µM | 6.46 µM | 13.3 µM | 12.6 µM | 27.6 µM | 28.6 µM | 14.5 µM | 6.57 µM | 10.9 µM | 59.7 µM | 4.1 µM | 6.59 µM | 6 µM | 34.2 µM | 5.74 µM | 35.9 µM | 6.28 µM | 12.1 µM | 3.9 µM | 34 µM |
| CN(C)c1ccc(/C=C/C(=O)CC(=O)/C=C/c2ccc(N(C)C)cc2)cc1 | > 100 µM | > 100 µM | > 100 µM | > 100 µM | > 100 µM | > 100 µM | > 100 µM | > 100 µM | > 100 µM | > 100 µM | > 100 µM | > 100 µM | > 100 µM | > 100 µM | > 100 µM | > 100 µM | > 100 µM | > 100 µM | > 100 µM | > 100 µM |
| CC(=O)OCCCC(NC(=O)OC(C)(C)C)C(=O)NC(CCCOC(C)=O)C(=O)NC(Cc1ccc([N+](=O)[O-])cc1)C(=O)NCC(=O)OCc1ccccc1 (stereo not given) | 31.5 µM | > 100 µM | 32.7 µM | 30.2 µM | 34.8 µM | 32.8 µM | 28.6 µM | > 100 µM | 32.3 µM | 41.8 µM | 30.1 µM | 28.8 µM | 35.6 µM | 24.4 µM | 31.9 µM | 57.6 µM | 31.1 µM | 33.5 µM | 32.8 µM | 30 µM |
| O=C(O)c1n[nH][nH]c1=S | > 100 µM | > 100 µM | > 100 µM | > 100 µM | > 100 µM | > 100 µM | > 100 µM | > 100 µM | > 100 µM | > 100 µM | > 100 µM | > 100 µM | > 100 µM | > 100 µM | > 100 µM | > 100 µM | > 100 µM | > 100 µM | > 100 µM | > 100 µM |
| CC1OC(OC2C(O)COC(OC3C(C)OC(OC4C(OC(=O)[C@]56CCC(C)(C)C[C@@H]5C5=CCC7[C@@]8(C)C[C@H](O)[C@H](OC9OC(CO)C(O)C(OC%10OC(CO)C(O)C(O)C%10O)C9O)[C@@](C)(CO)[C@@H]8CC[C@@]7(C)[C@]5(C)CC6)OCC(O)C4O)C(O)C3OC3OCC(O)(CO)C3O)C2O)C(O)C(O)C1O (stereo not given in full) | 19.7 µM | 15.4 µM | 16.2 µM | 19.1 µM | 20.7 µM | 22.4 µM | 19.2 µM | 30.1 µM | 17.4 µM | 16.7 µM | 19.1 µM | 19.5 µM | 20.3 µM | 18.6 µM | 14 µM | 18 µM | 15.7 µM | 25 µM | 20.6 µM | 10.3 µM |
| COc1ccc(OC)c(-c2nc3n(c2/C=C2/C(=O)Nc4ccccc42)CCS3)c1 | > 100 µM | > 100 µM | > 100 µM | > 100 µM | > 100 µM | > 100 µM | 44.7 µM | 78.2 µM | > 100 µM | > 100 µM | > 100 µM | > 100 µM | > 100 µM | > 100 µM | > 100 µM | > 100 µM | > 100 µM | > 100 µM | > 100 µM | > 100 µM |
| Cc1ccc2nc3c(=O)[nH]c(=O)nc-3n(C)c2c1C | > 100 µM | > 100 µM | > 100 µM | > 100 µM | > 100 µM | > 100 µM | > 100 µM | > 100 µM | > 100 µM | > 100 µM | > 100 µM | > 100 µM | > 100 µM | > 100 µM | > 100 µM | > 100 µM | > 100 µM | > 100 µM | > 100 µM | > 100 µM |
| O=C1NCC(CSc2nc3cc(C4CCCc5c4[nH]c4ccccc54)ccc3o2)N1 (stereo not given) | > 100 µM | > 100 µM | > 100 µM | > 100 µM | > 100 µM | > 100 µM | > 100 µM | > 100 µM | > 100 µM | > 100 µM | > 100 µM | > 100 µM | > 100 µM | > 100 µM | > 100 µM | > 100 µM | > 100 µM | > 100 µM | > 100 µM | > 100 µM |
| COc1cc(C(=O)/C=C/c2ccc(OCC#N)cc2)cc(OC)c1OC | 51.8 µM | 65.1 µM | 79.8 µM | 40.3 µM | 58.6 µM | > 100 µM | > 100 µM | 90.7 µM | 35.9 µM | 48.3 µM | 59.5 µM | > 100 µM | > 100 µM | > 100 µM | 32 µM | > 100 µM | 37.3 µM | 36.5 µM | 33.4 µM | 31.4 µM |
| OC1c2ccccc2CC12Cc1ccccc1C2 (stereo not given) | > 100 µM | > 100 µM | > 100 µM | > 100 µM | > 100 µM | > 100 µM | > 100 µM | > 100 µM | > 100 µM | > 100 µM | > 100 µM | > 100 µM | > 100 µM | > 100 µM | > 100 µM | > 100 µM | > 100 µM | > 100 µM | > 100 µM | > 100 µM |
